The target in one series is human mGluR5a receptor (Homo sapiens, UniProt P41594). The series can be described thus: Cell-based functional Ca2+ mobilization assay (FDSS), potentiation of glutamate EC20 response in H10H cell line. The conditions noted are these: for Emax: percent of maximal glutamate response, human mGluR5 HEK cells; for pEC50 / EC50: HEK cells transfected with human mGluR5 (H10H), presence of glutamate EC20. The method, then: Human embryonic kidney (HEK) cells transfected with rat mGluR5 were plated in clear bottom assay plates for assay in a Functional Drug Screening System (FDSS). In the alternative assay, HEK cells transfected with human mGluR5 (H10H cell line) were plated for assay in the FDSS. […] The cells were loaded with a Ca^2+-sensitive fluorescent dye (e.g., Fluo-4), and the plates were washed and placed in the FDSS instrument. After establishment of a fluorescence baseline for twelve seconds, the compounds of the present invention were added to the cells, and the response in cells was measured. Alternatively, in various further aspects, after establishment of a fluorescence baseline for about three seconds, the compounds of the present invention were added to the cells, and the response in cells was measured. Five minutes later, an mGluR5 agonist (e.g., glutamate, 3,5-dihydroxyphenylglycine, or quisqualate) was added to the cells, and the response of the cells was measured.
human mGluR5a receptor, sequence (P41594 21-1180 isoform P41594-2 limits assumed): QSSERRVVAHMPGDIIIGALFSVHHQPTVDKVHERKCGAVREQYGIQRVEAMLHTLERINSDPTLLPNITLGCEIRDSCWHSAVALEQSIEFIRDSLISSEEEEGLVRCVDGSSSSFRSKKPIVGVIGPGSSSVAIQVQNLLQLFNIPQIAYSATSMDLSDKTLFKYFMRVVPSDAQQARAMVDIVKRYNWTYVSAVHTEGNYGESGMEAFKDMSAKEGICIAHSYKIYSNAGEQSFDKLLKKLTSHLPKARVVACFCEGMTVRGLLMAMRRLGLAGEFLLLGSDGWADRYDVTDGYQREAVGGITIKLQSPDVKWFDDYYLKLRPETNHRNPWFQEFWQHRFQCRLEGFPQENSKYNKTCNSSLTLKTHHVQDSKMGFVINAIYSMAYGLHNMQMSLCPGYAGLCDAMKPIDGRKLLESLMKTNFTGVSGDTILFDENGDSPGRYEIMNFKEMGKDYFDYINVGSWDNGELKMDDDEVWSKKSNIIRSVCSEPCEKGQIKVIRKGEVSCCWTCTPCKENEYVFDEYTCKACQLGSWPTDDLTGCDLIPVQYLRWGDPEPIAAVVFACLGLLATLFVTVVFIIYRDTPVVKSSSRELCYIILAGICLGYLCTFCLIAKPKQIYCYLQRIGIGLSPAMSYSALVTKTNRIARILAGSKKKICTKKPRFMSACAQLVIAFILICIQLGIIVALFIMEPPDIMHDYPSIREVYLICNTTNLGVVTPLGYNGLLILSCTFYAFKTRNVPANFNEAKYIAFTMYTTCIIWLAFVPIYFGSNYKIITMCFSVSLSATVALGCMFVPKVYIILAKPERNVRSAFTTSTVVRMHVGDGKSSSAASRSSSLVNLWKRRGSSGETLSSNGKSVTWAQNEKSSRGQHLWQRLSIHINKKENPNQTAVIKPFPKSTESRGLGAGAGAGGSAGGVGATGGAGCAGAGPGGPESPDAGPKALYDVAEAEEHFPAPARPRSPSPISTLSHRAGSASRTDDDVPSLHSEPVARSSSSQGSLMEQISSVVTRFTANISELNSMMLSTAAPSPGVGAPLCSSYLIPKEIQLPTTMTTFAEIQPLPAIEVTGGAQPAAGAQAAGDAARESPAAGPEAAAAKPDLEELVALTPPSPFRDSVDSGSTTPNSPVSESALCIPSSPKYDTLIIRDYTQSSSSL
The above described assay operated in two modes. In the first mode, a range of concentrations of the present compounds were added to cells, followed by a single fixed concentration of agonist. If a compound acted as a potentiator, an EC50 value for potentiation and a maximum extent of potentiation by the compound at this concentration of agonist was determined by non-linear curve fitting. In the second mode, several fixed concentrations of the present compounds were added to various wells on a plate, followed by a range of concentrations of agonist for each concentration of present compound; the EC50 values for the agonist at each concentration of compound were determined by non-linear curve fitting. A decrease in the EC50 value of the agonist with increasing concentrations of the present compounds (a leftward shift of the agonist concentration-response curve) is an indication of the degree of mGluR5 potentiation at a given concentration of the present compound. An increase in the EC50 value of the agonist with increasing concentrations of the present compounds (a rightward shift of the agonist concentration-response curve) is an indication of the degree of mGluR5 antagonism at a given concentration of the present compound. The second mode also indicates whether the present compounds also affect the maximum response to mGluR5 to agonists.
The mGluR5 activity was determined using the metabotropic glutamate receptor activity assays in human embryonic kidney cells as described herein, wherein the human embryonic kidney cells were transfected with human mGluR5. The compounds in Table 1 were synthesized with methods identical or analogous to those shown herein. The requisite starting materials were commercially available, described in the literature, or readily synthesized by one skilled in the art of organic synthesis.
Human mGluR5a cDNA in pCMV6-XL6 mammalian expression plasmid was purchased from OriGene Technologies, Inc. (catalogue number SC326357) and subcloned into pcDNA3.1(−). Human embryonic kidney (HEK)293A cells were then transfected with human mGluR5a pcDNA3.1(−) using LipofectAmine2000 (Invitrogen) and monoclones were selected and tested for functional response using a Ca^2+ mobilization assay. Monoclones were named for the species (“H” for human) plus the location on the plate (e.g. “10H”).
HEK cells transfected with the human mGluR5a receptor (H10H cell line) were plated at 15,000 cells/well in clear-bottomed poly-D-lysine-coated assay plates (BD Falcon) in glutamate-glutamine-free growth medium and incubated overnight at 37° C. and 5% CO2. The following day, the growth medium was removed and the cells were washed with assay buffer containing 1× Hank's balanced salt solution (Invitrogen, Carlsbad, Calif.), 20 mM HEPES, 2.5 mM probenecid, pH 7.4 and left with 20 μL of this reagent.
For orientation: Calcium flux is commonly read through the fluorescence of an indicator in the cells.

The mark [1] stands for this setting: HEK293, maximum average response at a single concentration, read-out: Emax.
The mark [2] stands for this setting: maximum average response at a single concentration.

For orientation: Emax means the size of the effect at its maximum, as opposed to the concentration needed. As usually defined, the pEC50 is −log10 of the EC50, conventionally taken in molar units. A word on the melting point: it is the temperature of the solid-liquid transition.

Each structure is given as a SMILES string. Where two headings read alike, the source gives them in different places.

`N#Cc1cc(F)cc(C(=O)N2CCn3nc(COc4cccc(F)c4)cc3C2)c1` [Compound 31] returned a melting point of 76.8 °C. Moreover, on human mGluR5a receptor (setting [1]), the Emax stood at 54%. For the same molecule, at human mGluR5a receptor (concentration in mol/L), the pEC50 is 6.77. Moreover, on human mGluR5a receptor (read-out: EC50), the EC50 amounted to 0.17 µM.
On the same counts, the results for `O=C(c1ncccc1F)N1CCn2nc(COc3cccc(F)c3)cc2C1` [Compound 20] are 114 °C, 65%, 5.53 and 2.95 µM.
On to `N#Cc1cc(C(=O)N2CCn3nc(COc4ccccc4)cc3C2)ccc1F` [Compound 28], for which the melting point turned out to be 133.3 °C. Also, the Emax at human mGluR5a receptor (setting [1]) was found to be 81%. At human mGluR5a receptor (concentration in mol/L), the pEC50 is on record as 5.78. At human mGluR5a receptor (read-out: EC50), the EC50 stood at 1.66 µM.
In the case of `O=C(c1ccc(F)c(F)c1)N1CCn2nc(COc3cccc(F)c3)cc2C1` [Compound 13], the melting point is 112.7 °C. Further, the Emax at human mGluR5a receptor (setting [1]) stood at 75%. Also, the pEC50 at human mGluR5a receptor (concentration in mol/L) is reported as 6.23. In addition, the EC50 at human mGluR5a receptor (read-out: EC50) amounted to 0.587 µM.
On to `CC1CN(C(=O)c2ccc(F)cc2)Cc2cc(COc3ccccc3)nn21` (racemic) [Compound 16], for which the melting point was determined as 126.5 °C. Besides, the Emax at human mGluR5a receptor (setting [1]) was 77%. Also, the EC50 on human mGluR5a receptor (read-out: EC50) amounted to 0.172 µM.
Consider `O=C(c1ncc(F)cc1F)N1CCn2nc(COc3cccc(F)c3)cc2C1` [Compound 21], for which the melting point was greater than 300 °C. Also, the Emax on human mGluR5a receptor (setting [1]) is 77%. In addition, the pEC50 on human mGluR5a receptor (concentration in mol/L) worked out at 5.89. The EC50 at human mGluR5a receptor (read-out: EC50) came out at 1.28 µM.
The matching figures for `O=C(c1ccccc1)N1CCn2nc(COc3cccc(F)c3)cc2C1` [Compound 9]: 159.2 °C, 72%, 6.59 and 0.257 µM.
On the same counts, the results for `N#Cc1ccc(C(=O)N2CCn3nc(COc4cccc(F)c4)cc3C2)cc1F` [Compound 32] are greater than 300 °C, 23%, 5.75 and 1.78 µM.
The matching figures for `N#Cc1cc(C(=O)N2CCn3nc(COc4cccc(F)c4)cc3C2)ccc1F` [Compound 33]: 57.1 °C, 71%, 5.98 and 1.05 µM.
Regarding `O=C(c1c(F)cccc1F)N1CCn2nc(COc3ccccc3)cc2C1` [Compound 6], the melting point is 95.8 °C. For the same molecule, the Emax at human mGluR5a receptor (setting [1]) worked out at 74%. The pEC50 at human mGluR5a receptor (concentration in mol/L) is given as 6.53. The EC50 on human mGluR5a receptor (read-out: EC50) was determined as 0.292 µM.
As for `O=C(c1ccc(F)cc1)N1CCn2nc(COc3cccc(F)c3)cc2C1` [Compound 12], the melting point was 126.9 °C. For the same molecule, the Emax at human mGluR5a receptor (setting [1]) worked out at 69%.
In turn, `CC1CN(C(=O)c2cccc(C#N)c2)Cc2cc(COc3ccccc3)nn21` (stereo not shown) [Compound 43] registered a melting point of 88.8 °C. Moreover, at human mGluR5a receptor (setting [1]), the Emax is 72%. The pEC50 on human mGluR5a receptor (concentration in mol/L) stood at 6.25. The EC50 on human mGluR5a receptor (read-out: EC50) worked out at 0.562 µM.
For the molecule `O=C(c1cncc(F)c1)N1CCn2nc(COc3cccc(F)c3)cc2C1` [Compound 23], the melting point was greater than 300 °C. Further, on human mGluR5a receptor (setting [1]), the Emax is 58%. Besides, at human mGluR5a receptor (concentration in mol/L, read-out: pEC50 (converted)), the EC50 is 1.51 µM. On human mGluR5a receptor (read-out: EC50), the EC50 stood at 1.37 µM.
In turn, `Cc1cnc(C(=O)N2CCn3nc(COc4cccc(F)c4)cc3C2)cn1` [Compound 35] came in with a melting point of 105.5 °C. Further, at human mGluR5a receptor (setting [1]), the Emax stood at 36%. Moreover, the pEC50 on human mGluR5a receptor (concentration in mol/L) is less than 4.52. Also, the EC50 at human mGluR5a receptor (read-out: EC50) is greater than 30.2 µM.
The molecule `CC1Cn2nc(COc3ccccc3)cc2CN1C(=O)c1ccc(F)cc1` (stereo not shown) [Compound 45] yielded a melting point of 53.8 °C. On human mGluR5a receptor (concentration in mol/L), the pEC50 came to 6.62. Also, the EC50 at human mGluR5a receptor (read-out: EC50) was found to be 0.24 µM. In addition, at human mGluR5a receptor (setting [2]), the Emax turned out to be 75%.
The matching figures for `CC1Cn2nc(COc3ccccc3)cc2CN1C(=O)c1cccc(C#N)c1` (stereo not shown) [Compound 50]: 53.9 °C, 6.36, 0.437 µM and 59%.

The values above are taken from patent US9255103B2, “Substituted pyrazolo[1,5-a]pyrazines as mGluR5 receptor modulators” (Vanderbilt University, priority 2010, dated 2016).
